This note sets out measurements from US20240165164A1, “STEM CELLS FOR USE IN REDUCING THE IMMUNE RESPONSE FOLLOWING ORGAN TRANSPLANTATION” (Amniotics AB, priority 2021, published 2024).

Molecules are shown by their SMILES.

Assay [1] deals with human Peripheral Blood Mononuclear Cells (PBMCs). Kind of assay: PBMC co-culture: proliferation and cell composition after 72 hours of activation (FACS analysis after CFSE labeling). On the procedure:
(§1) Freshly isolated human PBMCs, pooled from three donors, were activated with anti-CD3/anti-CD28 at 10 μg/ml and 5 μg/ml respectively in presence of MSCs ex vivo for 24 or 72 hours. Following activation, cells were analysed for effects on cellular composition after 24 hours and for effects on cellular composition and cell proliferation using CFSE after 72 hours. In addition, supernatants collected after 24 hours of activation were analysed for cytokine levels using Luminex.
(§2) Peripheral Blood Mononuclear Cells (PBMCs) were isolated from leucocyte concentrate from three different donors (acquired from Blodcentralen, Lunds Universitetssjukhus, Lund, Sweden) through gradient centrifugation at 400×g for 40 minutes using Ficoll. Red blood cells (RBCs) were lysed using BD Pharmlyse buffer 10× diluted in milliQ water for 3 minutes at room temperature (RT). Cells were washed and the isolated PBMCs were pooled. Cell concentration was determined using a Scepter cell counter (Millipore Merck, MA. USA). Cells were diluted to 1×10^7 cells/ml in PBS. Pooled PBMCs were split into 2 different tubes. Cells in tube 1 was stained with CFSE at 5 µM for 5 minutes (dark, RT). CFSE stained cells were washed with an equal volume of FBS to stop the reaction and washed again with PBS. Cells in tube two was left in PBS.
(§3) MSCs (donor 1, donor 2, donor 3, and AD-MSC control cells) were provided in 8 different tubes, two for each cell type (in different medias (M3 and M4). All cells (PBMCs and MSCs) were diluted in the two different cell culture media (M3 and M4) to a final concentration of 2*10^6 cells/ml. Media was supplemented with anti-CD28 at 5 μg/ml. Cells were added to anti-CD3 (1 μg/well, 100 μl/well) coated U bottom cell culture plates according to the layout below, 200 μl/well in different PBMC:MSC ratios (1:10, 1:5, 1:2.5, 1:0 and 0:1) with a total amount of cells at 4*10^5 cells/well.
(§4) When plating controls, cells were spun down and diluted in M3 or M4 at 4*10^6 cells/ml, with a total amount of cells at 4*10^5 cells/well. 100 μl PBMCs were added per well. […] Medium was added to unstimulated control wells (700 μl/well). Cells were incubated for 24 or 72 hours at 37° C., 5% CO2. See also FIG. 28.
After 72 hours of incubation, CFSE stained cells were stained with CD4, CD8, CD80, CD206 and CD163 in staining buffer. Briefly, cells were transferred to V bottom plates, centrifuged at 360×g for 2 min. Cells were washed in PBS, centrifuged at 360×g for 2 min at 4° C. Supernatant was flicked off and surface markers were added. Cells were incubated at +4° C. for 20 minutes. After incubation, cells were washed 1× in PBS, centrifuged at 360×g for 2 min at 4° C. Cells were resuspended in PBS and acquired using the Attune Nxt flow cytometer. Compensation was performed using beads—AbC Total Compensation capture beads and negative beads for surface markers. For CFSE compensation, newly CFSE stained cells were used. Since compensation was done using both beads and cells, FSC and SSC were changed and adjusted to beads or cells. Lasers were not changed after compensation.
Graphs were performed using Prism 8 for Mac OS X (GraphPad Software, San Diego, CA, USA). Results are presented as mean values±SEM, if not otherwise stated. Dot plots were acquired from analysis using FlowJo v10.6.1 for Mac (BD, New Jersey, USA). The inhibitory effect of MSCs on PBMC proliferation was calculated according to the two formulas below: […]
In general terms: In flow cytometry, cells or beads pass a laser one at a time.

The test system is the same in assay [2]. The assay can be described thus: PBMC co-culture: cytokine analysis after 24 hours of activation (Luminex). It counts as cell-based. On the procedure: 100 μl PBMCs were added per well. […] See also FIG. 28.
Supernatant (24 hours incubation) was analysed for cytokines using the 12-plex LXSAHM-12 Luminex kit. All reagents, standard and samples were prepared at room temperature and according to manufacturer's instruction. Briefly, 50 μl of standard or sample was added to wells. Microparticles were added to samples and standard and samples were incubated for 2 hours at room temperature on a horizontal orbital shaker (800 rpm). Plate was washed 3× in washing buffer using a magnetic plate. Biotin-antibody was added and incubated dark for 1 hour at room temperature on a horizontal orbital shaker (800 rpm). Plate was washed 3× in washing buffer using a magnetic plate. Streptavidin-PE was added to each well and incubated dark at room temperature on a horizontal orbital shaker (800 rpm) for 30 minutes. Plate was washed 3× in washing buffer using a magnetic plate. Microparticles were resuspended in 100 μl washing buffer, incubated for 2 minutes on a horizontal orbital shaker (800 rpm). Samples were analysed on a Bio-Rad Luminex analyzer.

Assay [3] shares this test system. The assay can be described thus: PBMC co-culture: cell composition after 24 hours of activation (FACS analysis). How it is done: as §1, §2, §3, §4
Following 24 hours of incubation, cells in FACS/Luminex plates were stained with antibodies detecting CD73, CD4, CD8, CD80, CD206, CD163 and PD-1 in staining buffer (PBS supplemented with 1% BSA). Briefly, cells were transferred to V bottom plates and centrifuged at 360×g for 2 min. Supernatant was transferred to a storage plate and put in −20° C. until analysis using Luminex. Cells were washed in PBS, centrifuged at 360×g for 2 min at 4° C. Supernatant was flicked off and antibodies against surface markers were added. Cells were incubated at +4° C. for 20 minutes (dark). After incubation, cells were washed 1× in PBS, centrifuged at 360×g for 2 min at 4° C. Cells were resuspended in PBS and acquired using the Attune Nxt flow cytometer. Compensation was performed using beads—AbC Total Compensation capture beads and negative beads. Since compensation was done using beads, FSC and SSC were changed before analysing samples and adjusted to cells. Lasers were not changed after compensation. 150 μl was analysed from each sample.

[4] abbreviates: CsA 10 μg/ml, Prednisolone 125 nM.
[5] abbreviates: stimulated PBMCs, media 3, MSCs at all ratios, CsA 10 μg/ml, Prednisolone 125 nM.

In the case of `C[C@]12C=CC(=O)C=C1CC[C@@H]1[C@@H]2[C@@H](O)C[C@@]2(C)[C@H]1CC[C@]2(O)C(=O)CO` [Prednisolone], in assay [1] (72 hours), the M1 expression levels entry is given as “no effect”, the “M1 proliferation (CFSE)” value is given as “No effect”, the M2 expression levels entry was “no effect” and the “M2 proliferation (CFSE)” value is “No effect”. For the same compound, the “T helper cells (% CD4+ among T cells)” value in assay [1] (72 hours of incubation, unsorted MSCs co-culture, CsA 10 μg/ml, Prednisolone 125 nM) is recorded as “no effect”. Further, the “the other analysed cytokines, levels in supernatant” value in assay [2] (12-plex cytokines not listed as inhibited) is given as “No inhibitory effect”. Besides, in assay [2] (setting [4]), the “IL-6 levels in supernatant” value was “inhibits”. Further, in assay [2] (setting [5]), the “IL12/IL23p40 levels in supernatant” value is “inhibits” and the “TNF-α levels in supernatant” value is given as “inhibits”. The “HGF levels in supernatant” value in assay [2] (stimulated PBMCs, media 3, PBMC:MSC 1:2.5, 1:5, 1:10, CsA 10 μg/ml, Prednisolone 125 nM) was “inhibits”. Moreover, in assay [3] (setting [4]), the M2 macrophage expression result is “no effect”, the T cell activation result was “only slightly inhibits” and the “expression level of M1 macrophages” value is “no effect”. In addition, in assay [3] (Prednisolone 125 nM), the macrophage cell composition result is “did not have an effect”. The “T helper cells (% CD4+ lymphocytes or MFI of CD4+ lymphocytes)” value in assay [3] (aCD3/aCD28 activated PBMCs, media 3, unsorted MSCs at PBMC:MSC 1:2.5, 1:5, 1:10, Prednisolone 125 nM, vs control) is reported as “higher levels”.
